Results published in patent publication US10288604B2, “Method for imaging cell using fluorescence-labeled sugar derivative having coumarin derivative bound thereto, and imaging agent” (HIROSAKI UNIVERSITY, priority 2012, dated 2019).

Test system: tumor cell cluster composed of mouse insulinoma cells (MIN6)
Test: Imaging of tumor cell cluster composed of MIN6 cells (real time laser scanning confocal microscope)
Assay type: cell-based
Protocol: A culture solution prepared by suspending MIN6 cells at a proportion of 10×10^4 cells/mL was dropped in an amount of 10 μL on a glass cover slip, then, allowed to adhere to the glass surface, and 3 mL of the culture solution was added and cultured. The half quantity of the culture solution was changed every three days.
Cryopreserved MIN6 cells (cells donated from Professor Miyazaki Junichi of Osaka University and cultured 5 to 8 passages) were subjected to culture according to an ordinary method, and cultured 7 to 9 passages which were used in experiments. The half amount of the culture solution was changed every two days.
NaCl 120.0 mM, KCl 4.75 mM, KH2 PO4 1.19 mM, MgSO4.7H2O 1.19 mM, CaCl2.2H2O 1 mM, NaHCO3 5.02 mM, D-Glucose 5.6 mM, HEPES 10 mM (adjusted to pH 7.35 with 1M NaOH). For inhibiting entrance and elimination of fluorescently labeled glucose via a gap junction/hemichannel, 0.1 mM Carbenoxolone (SIGMA #C4790) was added. The HEPES solution for image acquisition was used as a solution for preparing a 2-PBLG solution and as a solution for preparing a 2-PBLG/2-TRLG solution and 2-PBLG/2-NBDLG/2-TRLG solution.
A glass cover slip wherein MIN6 cells had been cultured was transferred into a HEPES solution for image acquisition in a perfusion chamber set on a universal stage (Leica 11600234) on a confocal laser scanning microscope (TCS SP5 available from Leica), and adhered gently and tightly to the glass surface at the bottom of the chamber. […] Further, there is an excellent effect that in the space sandwiched by the metal guides, the perfusion solution flows smoothly as a laminar flow and quick solution exchange is possible.
A perfusion solution feeding system is equipped with one 60 mL cylinder for a control solution and five 10 mL cylinders for agent feeding, which can be switched as needed by a magnetic valve to allow perfusion. In experiments according to the present invention, a 5.6 mM glucose-containing HEPES solution for image acquisition was administered using the 60 mL cylinder and a mixed solution of 2-PBLG/2-NBDLG/2-TRLG, a mixed solution of 2-PBDG/2-TRLG, or a mixed solution of 2-PBLG/2-TRLG was administered using one of the five 10 mL cylinders. As described below, to avoid generation of bubbles in the perfusion chamber, both the solutions were heated beforehand, combined in one tube before being introduced into the perfusion chamber, the flow rate thereof being controlled by a flow rate controller, then, heated again by an inline heater and fed to the perfusion chamber on the confocal microscope.
A laser scan confocal microscope (manufactured by Leica, TCS-SP5 system, microscope body is DMI6000 CS trino electromotive inverted microscope) was used in conventional mode. Regarding laser used, a 405 nm diode laser was used for excitation of 2-PBLG and 2-PBDG, excitation of a mixed solution of 2-PBLG (or 2-PBDG) and 2-TRLG with a single light source, or live staining of nucleus by DAPI. The irradiation intensity was appropriately adjusted in accordance with the fluorescent pigment used so as to obtain sufficient observation intensity by an acoustic optical polarization element (Acoustic Optical Tunable Filter, AOTF). 2-NBDLG and 2-TRLG were excited by 488 nm Argon laser. The scan speed was 200 Hz or 400 Hz.
In fluorescence detection, a photomultiplier detector (PMT) 1 was used for detection of blue fluorescence by 2-PBDG or 2-PBLG and images were acquired in a wavelength detection range set at 415-580 nm in the case of detection of bicolor of 2-PBLG/2-TRLG and in a wavelength detection range set at 415-500 nm in the case of detection of tricolor of 2-PBLG/2-NBDLG/2-TRLG. For detection of green fluorescence by 2-NBDLG, PMT2 (called green channel, the same shall apply hereinafter) was used in a wavelength detection range of 500-580 nm. For detection of red fluorescence by 2-TRLG, PMT3 (called red channel, the same shall apply hereinafter) was used in a wavelength detection range of 580-740 nm. […]

[1] = mixed solution 100 μM 2-PBLG and 20 μM 2-TRLG

O=C(NC1C(O)OC(CO)[C@H](O)C1O)c1cc2cc(F)c(O)c(F)c2oc1=O (stereo partly drawn) [2-PBLG, 2-Deoxy-2-((6,8-difluoro-7-hydroxycoumarin-3-yl)carboxamido)-L-glucose]
fluorescence of cells in the cell cluster 8 minutes after initiation of washout [1]: scattered around the outer edge of the center of a cell cluster | fluorescence of cells in the cell cluster 12 minutes after initiation of washout [1]: still multiple cells showing the strongly positive signal | fluorescence of cells in the cell cluster 2 minutes after initiation of washout (mixed solution 100 μM 2-PBLG and 20 μM 2-TRLG, administered 5 minutes, MIN6 cluster day 13): extremely intense blue fluorescence is emitted from some cells | fluorescence of cells in the cancer cell cluster 12 minutes after completion of administration (mixed solution 100 μM 2-PBLG, 100 μM 2-NBDLG, 20 μM 2-TRLG): emit blue fluorescence by 2-PBLG continuously | fluorescence of cells in the cancer cell cluster 8 minutes after completion of administration (mixed solution 100 μM 2-PBLG, 100 μM 2-NBDLG, 20 μM 2-TRLG, MIN6 cluster day 13): intense blue fluorescence by 2-PBLG is maintained continuously
